Laboratory results reported in paper PMC6152192, “Novel Methylselenoesters as Antiproliferative Agents” (Molecules : A Journal of Synthetic Chemistry and Natural …, 2017).

How the values were obtained:
[1] = test system: glutathione-glutaredoxin (GSH-Grx) system; test: Glutaredoxin/glutathione assay (NADPH consumption); assay type: biochemical; conditions: 1 mM GSH, 200 μM NADPH, yeast GR, 1 μM hGrx1 when required, 45 min
Procedure: The assay was performed as previously described, with minor modifications and adapted for a 96-well plate. A mixture of 0.1 M Tris pH 8, 2 mM EDTA pH = 8, 0.1 mg/mL BSA, 1 mM GSH, 200 μM NADPH, and 0.008 OD/mL yeast GR was prepared (all reagents were purchased from Sigma-Aldrich). Reactions were performed with 1 μM hGrx1 (IMCO Corporation, Stockholm, Sweden) when corresponding and different concentrations of the compounds. A 100 μL mixture was added, and the final volume was adjusted to 110 μL per well. Consumption of NADPH was monitored at A340 on a VersaMax microplate reader (Molecular Devices) for 45 min.
(§1) Figure 7 Compounds 5 and 15 are substrates for thioredoxin reductase but not for the glutathione-glutaredoxin system. (A) NADPH consumption indicating reduction of compounds 5, 15 or MSA as control by thioredoxin reductase. The reaction mixture contained 100 nM TrxR1, 227 μM NADPH and the corresponding amount of compound in TE buffer (20 mM Tris, 2 mM EDTA pH = 8); (B) NADPH consumption indicating reduction of MSA by glutathione in the presence or absence of glutaredoxin. The reaction mixture contained the corresponding amount of compound, 0.1 M Tris, 2 mM EDTA pH = 8, 0.1 mg/mL BSA, 1 mM GSH, 200 μM NADPH, 0.008 OD/mL yeast GR and 1 μM hGrx1 when required. Only results for MSA are shown, as compounds 5 and 15 were not reduced.

[2] = test system: BEAS-2B (non-malignant bronchial epithelial); test: MTT viability assay, BEAS-2B; assay type: cell-based; conditions: BEAS-2B non-malignant, 72 h, MTT; for CC50: read-out: LC50 (the source's name)
Procedure: (§2) The novel compounds were tested against a panel of different cancer lines: PC-3 (prostate adenocarcinoma), MCF7 (mammary adenocarcinoma), HTB-54 (lung carcinoma), K-562 (chronic myelogenous leukemia) and HT-29 (colorectal adenocarcinoma). Two non-malignant cell lines, BEAS-2B (bronchial epithelial) and 184B5 (mammary epithelial) were also included to evaluate the toxicity of the novel synthesized compounds. The antiproliferative activity was measured with the [3-(4,5-dimethylthiazol-2-yl)-2,5-diphenyltetrazolium bromide] (MTT) assay after 72 h treatment. Six concentrations ranging from 0.1 to 100 μM were tested. MSA is largely known as the main CH3SeH putative precursor and was therefore included as positive control. The following parameters were calculated: GI50 (concentration which reduces the growth by 50%), TGI (concentration completely inhibiting growth) and LC50 (concentration that kills 50% of the cells).
(§3) All cells were purchased from the American Type Culture Collection (ATCC, Barcelona, Spain). HT-29 (colorectal adenocarcinoma), HTB-54 (grade III lung carcinoma), MCF7 (mammary adenocarcinoma), PC-3 (grade IV prostate adenocarcinoma) and K-562 (chronic myelogenous leukemia) were cultured in RPMI (Gibco, Madrid, Spain), 10% FBS (Gibco), 100 units/mL penicillin and 100 μg/mL streptomycin (Gibco). BEAS-2B cell line (normal epithelial lung) was cultured in DMEM (Gibco), 10% FBS, 100 units/mL penicillin and 100 μg/mL streptomycin. 184B5 (normal mammary gland) cell line was cultured in DMEM:F12 supplemented with 5% FBS, 1 × ITS (Lonza, Barcelona, Spain), 100 nM hydrocortisone (Sigma-Aldrich), 2 mM sodium pyruvate (Lonza), 20 ng/mL EGF (Sigma-Aldrich), 0.3 nM trans-retinoic acid (Sigma-Aldrich), 100 units/mL penicillin and 100 µg/mL streptomycin. Cells were cultured at 37 °C under 5% CO2.
(§4) Cell viability after treatment was assessed by the well-known 3-(4,5-dimethyl-thiazol-2-yl)-2,5-diphenyltetrazolium bromide (MTT, Sigma-Aldrich) assay. Briefly, 10,000 cells were seeded in 96-well plates, treated and incubated for 72 h. Dilutions of the compounds in cell medium were freshly prepared from a 0.01 M stock in DMSO. After treatment, 50 μL of MTT solution in PBS (2 mg/mL) were added and cells were incubated for 4 h. Medium was removed and 150 μL of DMSO was added to dissolve the formed formazan crystals. Absorbance was read at 550 nm in a microplate absorbance reader (Sunrise, Tecan, Männedorf, Switzerland).

[3] = test system: MCF7 (mammary adenocarcinoma); test: MTT viability assay, MCF7; assay type: cell-based; conditions: MCF7, 72 h, MTT; for CC50: read-out: LC50 (the source's name)
Procedure: as §2, §3, §4

HTB-54 (lung carcinoma) = test: MTT viability assay, HTB-54; assay type: cell-based; conditions: HTB-54, 72 h, MTT; for CC50: read-out: LC50 (the source's name)
Procedure: as §2, §3, §4

[4] = test system: 184B5 (non-malignant mammary epithelium); test: MTT viability assay, 184B5; assay type: cell-based; conditions: 184B5 non-malignant, 72 h, MTT; for CC50: read-out: LC50 (the source's name)
Procedure: as §2, §3, §4

[5] = test system: PC-3 (prostate adenocarcinoma); test: MTT viability assay, PC-3; assay type: cell-based; conditions: PC-3, 72 h, MTT; for CC50: read-out: LC50 (the source's name)
Procedure: as §2, §3, §4

[6] = test system: thioredoxin reductase (TrxR1); test: Thioredoxin reductase activity assay (NADPH consumption); assay type: biochemical; conditions: 100 nM TrxR1, 227 μM NADPH, TE buffer pH 8, 45 min
Procedure: The assay was performed as previously described, but in a final volume of 200 μL in a 96-well plate. Reaction started after addition of 133 μL of TE buffer (20 mM Tris, 2 mM EDTA, pH = 8), 0.227 mM NADPH (freshly prepared) to different concentrations of compounds solved in DMSO and TrxR1 (final concentration 100 nM). NADPH consumption was followed measuring absorbance decrease at 340 nm in a VersaMax microplate reader (Molecular Devices, Sunnyvale, CA, USA) over 45 min. A background sample with DMSO without the compounds was included and subtracted from the values.
as §1

[7] = test system: K-562 (chronic myelogenous leukemia); test: MTT viability assay, K-562; assay type: cell-based; conditions: K-562, 72 h, MTT; for CC50: read-out: LC50 (the source's name)
Procedure: as §2, §3, §4

[8] = Methylselenol (CH3SeH) release by hydrolysis, quantified with DTNB (Ellman's reagent); assay type: physicochemical; conditions: 100 μM compound, 100 μM DTNB, 100 mM phosphate buffer, 1 mM EDTA, pH 8, followed over 72 h
Text: The new compounds were designed as CH3SeH precursors. The chemical features of the selenoester functional group facilitate a nucleophilic attack (i.e., with water) which would deliver the CH3SeH residue. In order to verify if CH3SeH could be released from the molecules by hydrolysis and if the rate differed among the compounds, the reaction of CH3SeH with 5,5′-dithiobis(2-nitrobenzoic acid) (DTNB or Ellman’s reagent) in aqueous environment was monitored. Briefly, when the disulfide bridge of DTNB reacts with thiols or selenols, 2-nitro-5-thiobenzoate (TNB^2−) is released and the mixed disulfide or selenylsulfide is formed. Each released CH3SeH produces one yellow TNB^2− species, whose absorbance can be quantified at 412 nm (Figure 2A).
A stock solution of the compounds was prepared in anhydrous DMSO (10 mM). The compounds were placed in a 96-well plate in a final concentration of 100 μM. Reaction started after adding 200 μL of an aqueous 100 mM Na2HPO4 buffer (1 mM EDTA, pH = 8), containing 100 μM of DTNB from a freshly prepared 10 mM ethanolic stock, which were added just before starting the reaction. The DTNB concentration was quantified with a cysteine standard curve ([…]). Blanks for the compounds in the absence of DTNB were also included as well as a blank to measure the slow but spontaneous hydrolysis of DTNB, which was further subtracted from all the values. Absorbance was read at 412 nm in a FLUOstar Omega microplate reader (BMG LabTech, Ortenberg, Germany). Results represent means of triplicate values ± SD.
Figure 2 CH3SeH release rates are dependent on the chemical features of the molecule. Released CH3SeH was quantified through reaction with Ellman’s reagent (DTNB). (A) Proposed reaction between CH3SeH and DTNB; (B) Quantification of TNB^2− at different times. The compounds were tested at 100 μM in 200 μL of 100 mM phosphate buffer (1 mM EDTA, pH = 8). DTNB concentration was also 100 μM. Absorbance was followed at 412 nm over 72 h. A cysteine standard curve (7.5–150 μM) was used to calculate the concentration of TNB^2− over time. Compounds showing less than 15% hydrolysis at 72 h are not included, except for compound 5 as example. Error bars indicate SD of triplicates.

[9] = test system: HT-29 (colorectal adenocarcinoma); test: MTT viability assay, HT-29; assay type: cell-based; conditions: HT-29, 72 h, MTT; for CC50: read-out: LC50 (the source's name)
Procedure: as §2, §3, §4

Compound | GI50 [2] [µM] | TGI [2] [µM] | CC50 [2] [µM] | GI50 [3] [µM] | TGI [3] [µM] | CC50 [3] [µM] | GI50 (HTB-54 (lung carcinoma)) [µM] | TGI (HTB-54 (lung carcinoma)) [µM] | CC50 (HTB-54 (lung carcinoma)) [µM] | GI50 [4] [µM] | TGI [4] [µM] | CC50 [4] [µM] | GI50 [5] [µM] | TGI [5] [µM] | CC50 [5] [µM] | GI50 [7] [µM] | TGI [7] [µM] | CC50 [7] [µM] | CH3SeH release / hydrolysis rate [8] | GI50 [9] [µM] | further results
C[Se](=O)O [MSA, Methylseleninic acid, reference compound] | 3.7 ± 0.7 | 6.2 ± 1.2 | 8.7 ± 1.8 | 1.5 ± 0.5 | 5.4 ± 0.5 | 9.4 ± 1 | 3.5 ± 0.1 | 6.9 ± 0.2 | 19.9 ± 1.2 | 5.3 ± 1.2 | 9.2 ± 1.3 | 13.1 ± 1.3 | 4.4 ± 1.1 | 8.5 ± 2.4 | 47.6 ± 4.6 | – | – | – | – | – | reduction by GSH in the presence or absence of glutaredoxin (NADPH consumption) [1]: consistently reduced; reduction by TrxR1 (NADPH consumption) [6]: consistently reduced
Methyl 3-quinolinecarboselenoate [Compound 9] | 4.1 ± 1 | 7.1 ± 4.5 | 15.3 ± 9.1 | 4.4 ± 0.8 | 8.1 ± 1.2 | 48 ± 7.5 | 7.8 ± 1.2 | 33.0 ± 4.5 | 69.2 ± 2.7 | 3.7 ± 0.5 | 6.2 ± 0.4 | 8.6 ± 0.4 | 5.9 ± 0.5 | 10.0 ± 1.9 | 84.1 ± 8.9 | 39.5 ± 3.1 | 72.6 ± 4.1 | > 100 | more sustained release | 3.4 ± 0.2 | TGI [9]: 7.0 ± 0.2 µM; CC50 [9]: 37.2 ± 5 µM
Methyl 4-nitrobenzoselenoate [Compound 1] | 3.8 ± 0.3 | 6.4 ± 0.4 | 9 ± 0.7 | 4.1 ± 0.5 | 7.9 ± 0.9 | 45 ± 4.6 | – | 50.5 ± 5.1 | 78.6 ± 2.9 | 3.4 ± 0.4 | 6.4 ± 1.1 | 9.3 ± 0.6 | 5.8 ± 0.7 | 10.4 ± 2.3 | 75.7 ± 3.3 | 50.1 ± 2.3 | 85.3 ± 4.9 | > 100 | more sustained release | 5 ± 0.7 | TGI [9]: 9.3 ± 1.4 µM; CC50 [9]: 87.2 ± 5 µM
Methyl 5-isoxazolecarboselenoate [Compound 6] | 3 ± 0.9 | 5.6 ± 0.7 | 8.2 ± 0.5 | 3.5 ± 1 | 8.8 ± 0.7 | 71.9 ± 3.2 | 9 ± 2.8 | 43.9 ± 3.9 | 82 ± 1.3 | 2.7 ± 0.2 | 6.0 ± 0.4 | 9.3 ± 2 | 4.5 ± 1.3 | – | 61.5 ± 14 | 18.5 ± 7.1 | 58.3 ± 3.5 | 98.1 ± 0.7 | completely hydrolyzed within the first two hours of incubation | 5 ± 0.8 | TGI [9]: 15.1 ± 6.7 µM; CC50 [9]: 90.8 ± 15 µM
Methyl 6-bromochromone-2-carboselenoate [Compound 11] | 2.4 ± 0.9 | 5.0 ± 0.8 | 7.6 ± 0.7 | 4.2 ± 0.7 | 8.2 ± 1.1 | > 100 | 9.4 ± 3.5 | 52.3 ± 2.9 | > 100 | 3.3 ± 0.1 | 6.7 ± 0.9 | 14.5 ± 4.5 | 5.3 ± 1.1 | 17.1 ± 5.0 | 66.2 ± 2.4 | 81.9 ± 4 | >100 | > 100 | completely hydrolyzed within the first two hours of incubation | 4.9 ± 0.7 | TGI [9]: 9.6 ± 3 µM; CC50 [9]: 74.4 ± 4.2 µM
